In ChEMBL document CHEMBL4622872, “Discovery of DS-1971a, a Potent, Selective NaV1.7 Inhibitor” (J Med Chem, 2020):
In brackets after ≈: the same amount, converted by molar mass.

Assays:
[1] = Distribution coefficient, log D of the compound in 1-octanol and PBS buffer at pH 7.4 measured after 30 mins by LC-MS analysis; format: physicochemical; conditions: 1-octanol/PBS buffer
[2] = Aqueous thermodynamic solubility of the compound at pH 6.8 measured after 4 hrs by UV-HPLC analysis; format: physicochemical; conditions: buffer, pH 6.8; read-out: Therm_solubility
[3] = Stability of the compound in mouse liver microsomes assessed as parent compound remaining measured after 0.5 hrs; format: ADME, Microsome; conditions: mouse liver microsomes, read-out: Stability

SMILES	logD at 0.5 h [1]	solubility thermodynamic at 4 h [2]	remaining at 0.5 h [3]
Cn1nccc1[C@H]1CCC[C@@H]1Oc1cc(F)c(S(=O)(=O)Nc2ncns2)cc1F (racemic)	0.6	> 1900 µM	91%
Cn1nccc1[C@H]1CCC[C@@H]1Oc1cc(F)c(S(=O)(=O)Nc2nccs2)cc1F (racemic)	2.1	250 µM (≈ 110 µg/mL)	54%
Cn1nccc1[C@H]1CCCC[C@@H]1Oc1cc(F)c(S(=O)(=O)Nc2cscn2)cc1F (racemic)	1.8	660 µM (≈ 300 µg/mL)	28%
Cc1cc(S(=O)(=O)Nc2ccncn2)c(F)cc1O[C@H]1CCC[C@@H]1c1ccnn1C (racemic)	0.9	1200 µM (≈ 518 µg/mL)	87%
Cn1nccc1[C@H]1CCC[C@@H]1Oc1cc(F)c(S(=O)(=O)Nc2ccncn2)cc1Cl (racemic)	0.9	240 µM (≈ 108 µg/mL)	88%
Cc1cc(S(=O)(=O)Nc2ccncn2)c(F)cc1O[C@H]1CCCC[C@@H]1c1ccnn1C (racemic)	0.9	1800 µM (≈ 802 µg/mL)	75%
Cn1nccc1[C@H]1CCCC[C@@H]1Oc1cc(F)c(S(=O)(=O)Nc2ccncn2)cc1F (racemic)	0.3	1900 µM (≈ 854 µg/mL)	80%
Cc1nsc(NS(=O)(=O)c2cc(F)c(O[C@H]3CCC[C@@H]3c3ccnn3C)cc2F)n1 (racemic)	0.9	1800 µM (≈ 820 µg/mL)	69%
